Drawing on US6538035B2, “Use of tolterodine to treat asthma” (Pharmacia & Upjohn Company, priority 2000, dated 2003), this text covers peak flow, FEV1/FVC ratio and dyspnea tolerance for three compounds.

Test [1] concerns asthma. The test can be described thus: treatment of a patient with asthma by inhalation, morning peak flow. As to conditions: person. It counts as in vivo, human. The method, then:
A person with a history of asthma with a morning peak flow of less than 2 l/sec is treated with 2-(diisopropylamino)ethyl-1-phenylcyclopentanecarboxylate powder 0.1 mg every 8 hr continuously. Treatment improves the peak flow to 4-5 l/sec.
A person with a history of severe asthma with a morning peak flow of 5 l/sec is treated with tolterodine powder 6 mg once a day continuously. After a week of treatment the peak flow improves to 9 l/sec.
A person with a history of severe asthma with a morning peak flow of less than 3 l/sec is treated with tolterodine aerosol 2 mg three times daily continuously. After a week of treatment the peak flow improves to 6 l/sec.

Test [2] concerns chronic COPD. The test can be described thus: treatment of a patient with chronic COPD by inhalation. The class given is in vivo, human. As to conditions: person. As to the method: A person with a history of chronic COPD with FEV1 of 1.5 liters is treated with tolterodine aerosol 1 mg every 12 hr continuously for dyspnea. After two weeks of therapy dyspnea tolerance is improved.
A person with a history of chronic COPD with FEV1/FVC of 60% liters is treated with hydroxytolterodine aerosol 2 mg every 8 hr continuously for dyspnea. After a week of treatment the FEV1/FVC ratio improves to about 65%.

On to `CC(C)N(CCOC(=O)C1(c2ccccc2)CCCC1)C(C)C` [2-(diisopropylamino)ethyl-1-phenylcyclopentanecarboxylate], for which the peak flow in test [1] (asthma, baseline morning peak flow less than 2 l/sec, powder 0.1 mg every 8 hr continuously) is 4 to 5 L/s. On to `CC(C)N(CC[C@H](c1ccccc1)c1cc(CO)ccc1O)C(C)C` [hydroxytolterodine, 2-[(1R)-3-(diisopropylamino)-1-phenylpropyl]-4-(hydroxymethyl)phenol], for which, in test [2] (baseline FEV1/FVC of 60%, aerosol 2 mg every 8 hr continuously, after a week of treatment), the FEV1/FVC ratio result is “about 65%”. As to `Cc1ccc(O)c([C@H](CCN(C(C)C)C(C)C)c2ccccc2)c1` [tolterodine, 2-[(1R)-3-(diisopropylamino)-1-phenylpropyl]-4-methylphenol], the dyspnea tolerance result in test [2] (FEV1 of 1.5 liters, aerosol 1 mg every 12 hr continuously, after two weeks of therapy) is listed as “improved”. Further, the peak flow in test [1] (severe asthma, baseline morning peak flow 5 l/sec, powder 6 mg once a day continuously, after a week) is 9 L/s; in test [1] (severe asthma, baseline morning peak flow less than 3 l/sec, aerosol 2 mg three times daily continuously, after a week), 6 L/s.
